Data: patent US11512079B2, “Heterocycle substituted pyridine derivative antifungal agents” (Amplyx Pharmaceuticals, Inc., priority 2017, dated 2022)
Converted amounts (≈) assume the structure as drawn.

Legend:
Format in all cases: cell-based
[1] = test system: Aspergillus fumigatus MYA3626; test: In vitro antifungal assay (Example IX), microdilution broth, MEC; settings: minimum effective concentration (shortening of hyphae), 35° C., 40-48 h, RPMI1640
Outline: (§1)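 Read-out is the minimum effective concentration: lowest compound level causing shorter hyphae than in DMSO controls, echinocandin-style. Broth microdilution used conidia or spores harvested from agar plates, cleared of mycelium and clumps, at a final 1-2×10^4 spores/mL in RPMI1640.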

[2] = test system: Rhizomucor pusillus 46342; test: as above; settings: minimum effective concentration (shortening of hyphae), 35° C., 40-48 h, RPMI1640
Outline: as §1

[3] = test system: Cryptococcus gattii; test: In vitro antifungal assay (Example IX), microdilution broth, MIC; settings: minimum inhibitory concentration (≥50% inhibition), 35° C., 72 h (Cryptococcus), RPMI1640
Outline: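 MIC was determined from OD600 after 72 h at 35 °C for Cryptococcus, in RPMI1640 inoculated at 2.5×10^3 cells/mL. Compounds were tested as a 2-fold series from 2 to 0.0019 μg/mL final, added from DMSO intermediates at a 100-fold dilution.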

[4] = test system: Candida albicans 90028; test: as above; settings: minimum inhibitory concentration (≥50% inhibition), 35° C., 40-48 h, RPMI1640
Outline: (§2)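 Yeast inocula (2.5×10^3 cells/mL, RPMI1640) were exposed to twofold compound series reaching 2-0.0019 μg/mL final, per CLSI yeast methodology. Incubation at 35° C. ran 40-48 h for Candida albicans 90028 and 72 h for Cryptococcus neoformans H99. MIC endpoints were confirmed by absorbance at 600 nm.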

[5] = test system: Cryptococcus neoformans H99; test: as above; settings: minimum inhibitory concentration (≥50% inhibition), 35° C., 72 h, RPMI1640
Outline: as §2

SMILES | minimal effective concentration [1] | minimal effective concentration [2] | MIC [3] | MIC [4] | MIC [5]
Nc1ncccc1-c1cc(Cc2ccc(OCc3ccncc3F)nc2)no1 [compound 54, 3-(3-((6-((3-fluoropyridin-4-yl)methoxy)pyridin-3-yl)methyl)isoxazol-5-yl)pyridin-2-amine] | 0.01 to 0.1 µg/mL | > 1 µg/mL | ≤ 0.01 µg/mL | 0.01 to 0.1 µg/mL (≈ 0.0265 to 0.265 µM) | 0.01 to 0.1 µg/mL (≈ 0.0265 to 0.265 µM)
CC(Oc1ccc(Cc2cc(-c3cccnc3N)on2)cn1)c1ccccn1 (centres unmarked) [compound 55, 3-(3-((6-(1-(pyridin-2-yl)ethoxy)pyridin-3-yl)methyl)isoxazol-5-yl)pyridin-2-amine] | 0.1 to 1 µg/mL | > 1 µg/mL | 0.1 to 1 µg/mL (≈ 0.268 to 2.68 µM) | 0.1 to 1 µg/mL (≈ 0.268 to 2.68 µM) | 0.1 to 1 µg/mL (≈ 0.268 to 2.68 µM)
Nc1ncccc1-c1cc(Cc2ccc(OCC3CCC3)nc2)no1 [compound 57, 3-(3-((6-(cyclobutylmethoxy)pyridin-3-yl)methyl)isoxazol-5-yl)pyridin-2-amine] | 0.01 to 0.1 µg/mL | 0.1 to 1 µg/mL | ≤ 0.01 µg/mL | 0.01 to 0.1 µg/mL (≈ 0.0297 to 0.297 µM) | 0.01 to 0.1 µg/mL (≈ 0.0297 to 0.297 µM)
Nc1ncccc1-c1cc(Cc2ccc(Nc3ccccc3)nc2)no1 [compound 58, 5-((5-(2-aminopyridin-3-yl)isoxazol-3-yl)methyl)-N-phenylpyridin-2-amine] | 0.1 to 1 µg/mL | 0.1 to 1 µg/mL | 0.01 to 0.1 µg/mL (≈ 0.0291 to 0.291 µM) | 0.01 to 0.1 µg/mL (≈ 0.0291 to 0.291 µM) | 0.1 to 1 µg/mL (≈ 0.291 to 2.91 µM)
Nc1ncccc1-c1cc(Cc2ccc(Nc3ccccc3F)nc2)no1 [compound 60, 5-((5-(2-aminopyridin-3-yl)isoxazol-3-yl)methyl)-N-(2-fluorophenyl)pyridin-2-amine] | 0.1 to 1 µg/mL | > 1 µg/mL | 0.01 to 0.1 µg/mL (≈ 0.0277 to 0.277 µM) | 0.01 to 0.1 µg/mL (≈ 0.0277 to 0.277 µM) | 0.01 to 0.1 µg/mL (≈ 0.0277 to 0.277 µM)
Nc1ncccc1-c1cc(Cc2ccc(SCc3ccccc3)nc2)no1 [compound 61, 3-(3-((6-(benzylthio)pyridin-3-yl)methyl)isoxazol-5-yl)pyridin-2-amine] | 0.01 to 0.1 µg/mL | > 1 µg/mL | 0.01 to 0.1 µg/mL (≈ 0.0267 to 0.267 µM) | 0.01 to 0.1 µg/mL (≈ 0.0267 to 0.267 µM) | 0.1 to 1 µg/mL (≈ 0.267 to 2.67 µM)
c1ccc(OCc2ccc(Cn3cc(-c4cccnc4)cn3)cc2)nc1 [compound 62, 2-((4-((4-(pyridin-3-yl)-1H-pyrazol-1-yl)methyl)benzyl)oxy)pyridine] | 0.01 to 0.1 µg/mL | > 1 µg/mL | > 1 µg/mL | 0.1 to 1 µg/mL (≈ 0.292 to 2.92 µM) | > 1 µg/mL
c1ccc(COc2ccc(Cn3cc(-c4cccnc4)cn3)cn2)cc1 [compound 65, 2-(benzyloxy)-5-((4-(pyridin-3-yl)-1H-pyrazol-1-yl)methyl)pyridine] | 0.01 to 0.1 µg/mL | > 1 µg/mL | 0.1 to 1 µg/mL (≈ 0.292 to 2.92 µM) | 0.1 to 1 µg/mL (≈ 0.292 to 2.92 µM) | 0.1 to 1 µg/mL (≈ 0.292 to 2.92 µM)
Nc1ncccc1-c1cc(Cc2ccc(Cc3cccnc3F)cc2)no1 [compound 69, 3-(3-(4-((2-fluoropyridin-3-yl)methyl)benzyl)isoxazol-5-yl)pyridin-2-amine] | 0.01 to 0.1 µg/mL | 0.1 to 1 µg/mL | 0.01 to 0.1 µg/mL (≈ 0.0277 to 0.277 µM) | 0.01 to 0.1 µg/mL (≈ 0.0277 to 0.277 µM) | 0.01 to 0.1 µg/mL (≈ 0.0277 to 0.277 µM)
Nc1ncccc1-c1cc(Cc2ccc(CNc3ccnc(F)c3)cc2)no1 [compound 70, 3-(3-(4-(((2-fluoropyridin-4-yl)amino)methyl)benzyl)isoxazol-5-yl)pyridin-2-amine] | 0.01 to 0.1 µg/mL | > 1 µg/mL | 0.1 to 1 µg/mL (≈ 0.266 to 2.66 µM) | 0.1 to 1 µg/mL (≈ 0.266 to 2.66 µM) | 0.1 to 1 µg/mL (≈ 0.266 to 2.66 µM)
Nc1ncccc1-c1cc(Cc2ccc(Nc3cccc(F)c3F)nc2)no1 [compound 72, 5-((5-(2-aminopyridin-3-yl)isoxazol-3-yl)methyl)-N-(2,3-difluorophenyl)pyridin-2-amine] | 0.1 to 1 µg/mL | 0.1 to 1 µg/mL | 0.1 to 1 µg/mL (≈ 0.264 to 2.64 µM) | 0.01 to 0.1 µg/mL (≈ 0.0264 to 0.264 µM) | 0.01 to 0.1 µg/mL (≈ 0.0264 to 0.264 µM)
Nc1ncccc1-c1cc(Cc2ccc(OCc3ccco3)nc2)no1 [compound 73, 3-(3-((6-(furan-2-ylmethoxy)pyridin-3-yl)methyl)isoxazol-5-yl)pyridin-2-amine] | 0.1 to 1 µg/mL | > 1 µg/mL | > 1 µg/mL | 0.01 to 0.1 µg/mL (≈ 0.0287 to 0.287 µM) | > 1 µg/mL
Nc1ncccc1-c1cc(Cc2ccc(NCc3ccccc3F)nc2)no1 [compound 74, 5-((5-(2-aminopyridin-3-yl)isoxazol-3-yl)methyl)-N-(2-fluorobenzyl)pyridin-2-amine] | 0.1 to 1 µg/mL | > 1 µg/mL | 0.01 to 0.1 µg/mL (≈ 0.0266 to 0.266 µM) | 0.01 to 0.1 µg/mL (≈ 0.0266 to 0.266 µM) | 0.01 to 0.1 µg/mL (≈ 0.0266 to 0.266 µM)
Nc1ncccc1-c1cc(Cc2ccc(Oc3ccc(F)cc3F)nc2)no1 [compound 75, 3-(3-((6-(2,4-difluorophenoxy)pyridin-3-yl)methyl)isoxazol-5-yl)pyridin-2-amine] | 0.01 to 0.1 µg/mL | 0.1 to 1 µg/mL | 0.1 to 1 µg/mL (≈ 0.263 to 2.63 µM) | 0.01 to 0.1 µg/mL (≈ 0.0263 to 0.263 µM) | 0.01 to 0.1 µg/mL (≈ 0.0263 to 0.263 µM)
Nc1ncccc1-c1cc(Cc2ccc(OCCc3ccccc3F)nc2)no1 [compound 77, 3-(3-((6-(2-fluorophenethoxy)pyridin-3-yl)methyl)isoxazol-5-yl)pyridin-2-amine] | 0.1 to 1 µg/mL | 0.1 to 1 µg/mL | 0.01 to 0.1 µg/mL (≈ 0.0256 to 0.256 µM) | 0.01 to 0.1 µg/mL (≈ 0.0256 to 0.256 µM) | 0.01 to 0.1 µg/mL (≈ 0.0256 to 0.256 µM)
Nc1ncccc1-c1cc(Cc2ccc(OCCc3ccccc3)nc2)no1 [compound 78, 3-(3-((6-phenethoxypyridin-3-yl)methyl)isoxazol-5-yl)pyridin-2-amine] | 0.1 to 1 µg/mL | 0.1 to 1 µg/mL | 0.01 to 0.1 µg/mL (≈ 0.0269 to 0.269 µM) | 0.01 to 0.1 µg/mL (≈ 0.0269 to 0.269 µM) | 0.01 to 0.1 µg/mL (≈ 0.0269 to 0.269 µM)
Nc1ncccc1-c1cc(Cc2ccc(OCCc3ccc(F)cc3)nc2)no1 [compound 79, 3-(3-((6-(4-fluorophenethoxy)pyridin-3-yl)methyl)isoxazol-5-yl)pyridin-2-amine] | 0.1 to 1 µg/mL | 0.1 to 1 µg/mL | 0.1 to 1 µg/mL (≈ 0.256 to 2.56 µM) | 0.01 to 0.1 µg/mL (≈ 0.0256 to 0.256 µM) | 0.01 to 0.1 µg/mL (≈ 0.0256 to 0.256 µM)
Nc1ncccc1-c1cc(Cc2ccc(OCc3cccc(F)c3)nc2)no1 [compound 80, 3-(3-((6-((3-fluorobenzyl)oxy)pyridin-3-yl)methyl)isoxazol-5-yl)pyridin-2-amine] | ≤ 0.01 µg/mL | 0.1 to 1 µg/mL | 0.01 to 0.1 µg/mL (≈ 0.0266 to 0.266 µM) | ≤ 0.01 µg/mL | 0.01 to 0.1 µg/mL (≈ 0.0266 to 0.266 µM)
Nc1ncccc1-c1cc(Cc2ccc(Oc3cc(F)cc(F)c3)nc2)no1 [compound 81, 3-(3-((6-(3,5-difluorophenoxy)pyridin-3-yl)methyl)isoxazol-5-yl)pyridin-2-amine] | 0.01 to 0.1 µg/mL | 0.1 to 1 µg/mL | 0.01 to 0.1 µg/mL (≈ 0.0263 to 0.263 µM) | 0.01 to 0.1 µg/mL (≈ 0.0263 to 0.263 µM) | ≤ 0.01 µg/mL
Cc1csc(COc2ccc(Cc3cc(-c4cccnc4N)on3)cn2)n1 [compound 82, 3-(3-((6-((4-methylthiazol-2-yl)methoxy)pyridin-3-yl)methyl)isoxazol-5-yl)pyridin-2-amine] | 0.01 to 0.1 µg/mL | > 1 µg/mL | 0.01 to 0.1 µg/mL (≈ 0.0264 to 0.264 µM) | 0.1 to 1 µg/mL (≈ 0.264 to 2.64 µM) | 0.01 to 0.1 µg/mL (≈ 0.0264 to 0.264 µM)
Nc1ncccc1-c1cc(Cc2ccc(OCc3ccnc(Cl)c3)nc2)no1 [compound 83, 3-(3-((6-((2-chloropyridin-4-yl)methoxy)pyridin-3-yl)methyl)isoxazol-5-yl)pyridin-2-amine] | 0.01 to 0.1 µg/mL | > 1 µg/mL | 0.01 to 0.1 µg/mL (≈ 0.0254 to 0.254 µM) | 0.01 to 0.1 µg/mL (≈ 0.0254 to 0.254 µM) | ≤ 0.01 µg/mL
Nc1ncccc1-c1cc(Cc2ccc(OCc3cc(F)cc(F)c3)nc2)no1 [compound 84, 3-(3-((6-((3,5-difluorobenzyl)oxy)pyridin-3-yl)methyl)isoxazol-5-yl)pyridin-2-amine] | 0.01 to 0.1 µg/mL | 0.1 to 1 µg/mL | 0.1 to 1 µg/mL (≈ 0.254 to 2.54 µM) | 0.01 to 0.1 µg/mL (≈ 0.0254 to 0.254 µM) | 0.01 to 0.1 µg/mL (≈ 0.0254 to 0.254 µM)
